Literature values as cited in US20210113561A1, “PHARMACEUTICAL COMPOSITION, METHODS FOR TREATING AND USES THEREOF” (Boehringer Ingelheim International GmbH, priority 2018, published 2021).

What was measured:
[1] = molecular target: T1, SGLT2 (Homo sapiens, UniProt P31639)
T1 sequence (P31639 1-672): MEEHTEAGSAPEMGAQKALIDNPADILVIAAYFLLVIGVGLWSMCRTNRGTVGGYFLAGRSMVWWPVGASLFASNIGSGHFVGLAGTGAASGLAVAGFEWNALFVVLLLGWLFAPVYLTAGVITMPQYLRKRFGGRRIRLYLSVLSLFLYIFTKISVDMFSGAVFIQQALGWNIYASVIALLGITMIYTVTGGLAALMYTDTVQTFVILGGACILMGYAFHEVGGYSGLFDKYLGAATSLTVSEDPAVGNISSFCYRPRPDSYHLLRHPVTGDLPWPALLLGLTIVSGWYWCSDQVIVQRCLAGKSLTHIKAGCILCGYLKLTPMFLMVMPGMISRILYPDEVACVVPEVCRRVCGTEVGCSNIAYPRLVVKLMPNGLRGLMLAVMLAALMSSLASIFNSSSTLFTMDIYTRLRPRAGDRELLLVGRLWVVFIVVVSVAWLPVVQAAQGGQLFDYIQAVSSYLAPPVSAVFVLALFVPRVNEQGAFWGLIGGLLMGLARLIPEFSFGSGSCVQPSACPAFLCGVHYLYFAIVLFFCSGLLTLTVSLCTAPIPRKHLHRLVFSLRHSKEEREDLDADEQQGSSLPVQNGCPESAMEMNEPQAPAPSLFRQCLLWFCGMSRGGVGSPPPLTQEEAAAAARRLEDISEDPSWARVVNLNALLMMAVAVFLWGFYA

[2] = patients with type 2 diabetes mellitus at high risk for cardiovascular events
[3] = metformin on its own, in the diabetic

OC[C@H]1O[C@@H](c2ccc(Cl)c(Cc3ccc(O[C@H]4CCOC4)cc3)c2)[C@H](O)[C@@H](O)[C@@H]1O [empagliflozin]
selectivity SGLT2 versus SGLT1 [1]: high selectivity | rates of death from any cause [2]: significantly lower rates | rates of the primary composite cardiovascular outcome [2]: significantly lower rates

CN(C)C(=N)N=C(N)N [metformin]
average improvement in the HbA1c value [3]: 1.0-1.5%
